Patent US20220048915A1 (SHANGHAI PHARMACEUTICALS HOLDING CO., LTD., priority 2018, published 2022)
Several values for one entry are separate records, joined by “and”; a condition that tells them apart may be missing. Identical values can stand only once. Each block holds one compound with its values, some of them ahead of it.

How the values were obtained:
BV-2 cells = assay: Inhibition of inflammation in LPS-stimulated BV-2 cells (ELISA of inflammatory factors); format: cell-based; settings: Mus musculus, 100 ng/mL LPS 4 hours; for Emax: read-out: BV-2 Max Inh. (%); for IC50: read-out: BV-2 Rf IC50
Procedure: Normal cultured 8th passage BV-2 cells were taken, and inoculated separately in 96-well plates at a certain cell density. The cell culture plates were cultured at 37° C. and 5% CO2 for 24 hours.
After inoculating the plate for 24 hours, the cell culture medium was removed, and then 100 μL of a 4-fold gradient dilution compound starting from 10,000 nM prepared in DMEM+10% FBS, where High control and Low control contained 0.1% DMSO without compound. With 100 μL per well, the cell culture plate was cultured at 37° C. with 5% CO2 for one hour.
The compound-containing cultures were removed. 100 ng/mL of LPS was prepared with DMEM+10% FBS culture medium, and then the compound was diluted in a 4-fold gradient from 10,000 nM with LPS-containing culture medium. In low control, the compound was replaced with 0.1% DMSO. In High control, 0.1% DMSO was prepared with culture medium without LPS. 100 μL per well, and the cell culture plates were cultured at 37° C. with 5% CO2 for 4 hours.
After 4 hours of LPS stimulation, 110 μL of the culture solution was aspirated, and centrifuged at 2000 rpm for 2 minutes. A further 90 μl of supernatant was aspirated and immediately put into −20° C. for freezing.
ELISA kits were used to detect the expression of inflammatory factors such as IL-10, TNFα, etc. The OD450 signal values were measured by microplate reader. The in vitro inhibitory activity of the compounds was calculated according to the following formula: Inhibition rate: Inhibition rate (%)=(signal value of control−signal value of administration)/(high signal value of control−low signal value of control)×100%. And according to the inhibition rate of each concentration, Graphpad Prism 5.0 was used to curve fit the […] signal values at each concentration and calculate the corresponding IC50, which is shown in Table 1.

[1] = Pharmacokinetic properties in mice; format: in vivo, ICR mice; settings: for Cmax / MRT / Tmax / AUClast (po): po 10 mg/kg; for BA: po 10 mg/kg vs iv 3 mg/kg; for AUClast (po): 5-1440 minutes; for absorption compared with the positive compound VX-745 at the same dose: 10 mg/kg
Procedure: Forty-eight male ICR mice, weighing 18-22 g (provided by Shanghai Xipuerbikai Laboratory Animal Co., Ltd, Certificate No.: 20130016008116). The mice were […] for 12-16 hours before the experiment but water was allowed.
Blood samples were collected from the fundus vein of mice before and at 2, 5, 15, 30, 60, 90, 120, 240, 480, 600, and 1440 minutes of the administration, respectively.
Blood samples were collected from the fundus vein of mice before and at 5, 15, 30, 60, 90, 120, 240, 480 and 1440 minutes of administration, respectively.
2-3 time points were taken for each mouse. The mice were sacrificed at 5, 15, 30, 60 and 1440 minutes after the administration (3 mice per time point), and the brains were taken, rinsed with saline, dried on filter paper and weighed.
(§1) Blood samples were centrifuged at 8000 rpm for 5 minutes, and supernatant plasma was taken. To 50 μL of plasma samples was added 300 μL of acetonitrile containing internal standard (propranolol, 25 ng/mL) to precipitate the protein. After vortexing for 10 minutes and centrifuging at 6000 g and 4° C. for 10 minutes, the supernatant was taken and placed in a 96-well plate for determination of drug concentration in plasma by UPLC/MS-MS.

TNF-α = assay: Lipopolysaccharide (LPS)-induced inflammation model in mice, TNF-α in serum by ELISA; format: in vivo, C57BL/6J mice
Procedure: Male SPF-grade C57BL/6J mice, 6-8 weeks old, provided by Shanghai Ling Chang Biotechnology Co., Ltd. Animals were housed in clean-grade plastic cages (light and dark cycle 12/12 hours, temperature 22±2° C., humidity 50±10%, pellet feed, free drinking water).
1. Mice were weighed and administered according to an administration volume of 10 mL/kg, and oral administration by gavage was given for the first time. Each mouse was administrated at an interval of 3 minutes.
2. One hour after the first administration, LPS 5 mpk was administered intraperitoneally at an administration volume of 10 mL/kg.
3. 4 hours after the first administration, a second oral administration by gavage was given according to the administration volume of 10 mL/kg.
4. 6 hours after LPS intraperitoneal injection, mice were sacrificed, serum and cerebral cortex and hippocampus were sampled. After weighing the wet weight and they were put into liquid nitrogen for quick-freezing and storage.

[2] = Pharmacokinetic properties in rats; format: in vivo, SD rats; settings: for Cmax / MRT / Tmax / AUClast (po): po 6 mg/kg; for BA: po 6 mg/kg vs iv 3 mg/kg; for AUClast (po): 5-1440 minutes; for absorption compared with the positive compound VX-745 at the same dose: rats, 6 mg/kg
Procedure: Ten male SD rats, weighing 180-220 g (provided by Shanghai Xipuerbikai Laboratory Animal Co., Ltd, Certificate No.: 20130016008116). The rats were fasted for feed for 12-16 hours before the experiment but water was allowed.
Blood samples were collected from the fundus vein of rats before and at 2, 5, 15, 30, 60, 90, 120, 240, 360, 480, 600 and 1440 minutes after administration, respectively.
Blood samples were collected from the fundus vein of rats before and at 5, 15, 30, 60, 90, 120, 240, 360, 480, 600, 1440 minutes after administration respectively.
as §1

p38 kinase = settings: CN108349964A, Table 7 on page 74; read-out: IC50 grade for the inhibitory activity of p38 kinase; cited from earlier work
p38α = p38α (Homo sapiens, UniProt Q16539); assay: In vitro inhibition of p38 kinase (LANCE Ultra TR-FRET); format: biochemical; settings: read-out: Kinase in vitro IC50(nM) p38α
p38β = p38β (Homo sapiens, UniProt Q15759); assay: as above; format: biochemical; settings: read-out: Kinase in vitro IC50(nM) p38β
p38γ = target: T1, p38γ (Homo sapiens, UniProt P53778); assay: as above; format: biochemical; settings: read-out: Kinase in vitro IC50(nM) p38γ
T1 sequence (P53778 1-367): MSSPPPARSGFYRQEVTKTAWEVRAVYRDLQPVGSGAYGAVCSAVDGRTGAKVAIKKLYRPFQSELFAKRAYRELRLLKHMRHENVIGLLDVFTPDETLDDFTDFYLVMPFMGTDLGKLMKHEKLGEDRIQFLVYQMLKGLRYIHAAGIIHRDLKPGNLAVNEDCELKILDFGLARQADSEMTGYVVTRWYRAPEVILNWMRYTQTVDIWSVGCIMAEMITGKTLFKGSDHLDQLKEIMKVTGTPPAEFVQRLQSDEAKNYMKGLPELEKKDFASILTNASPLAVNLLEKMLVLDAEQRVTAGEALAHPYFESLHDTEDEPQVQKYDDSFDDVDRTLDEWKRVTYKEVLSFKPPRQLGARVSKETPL
Procedure: 10 mM of the storage solution of the test compound was taken and placed in a 96-well compound plate, and using DMSO for the compound at an initial concentration of 100×, which was then used as the first concentration and then carried out a 3-fold gradient dilution with DMSO for a total of 10 concentrations. After that, 1 μL of gradient dilutions were added to 19 μL of 1× reaction buffer to prepare 5× compound for later use. […] To the compound-free control well was added 2 μL of the following liquid: 19 μL of 1× reaction buffer with addition of 1 μL of DMSO. To the Min control well was added 2 μL of 250 mM EDTA.
1× of LANCE® Detection value Buffer was used to prepare a 2×Antibody for use, and the amount was 5 μL per well, at the same time 10 mM EDTA was prepared for later use. After the enzyme reaction was carried out for 30 minutes, 5 μL 10 mM EDTA was added to the 384-well plate and the reaction was carried out at room temperature for 5 minutes. Afterwards, 5 μL LANCE® Ultra Europium-anti-phospho-eIF4E-binding protein 1 (Thr37/46) was added to the 384-well plate and the reaction was carried out at room temperature for one hour.

Sequence of p38α (Q16539 whole entry): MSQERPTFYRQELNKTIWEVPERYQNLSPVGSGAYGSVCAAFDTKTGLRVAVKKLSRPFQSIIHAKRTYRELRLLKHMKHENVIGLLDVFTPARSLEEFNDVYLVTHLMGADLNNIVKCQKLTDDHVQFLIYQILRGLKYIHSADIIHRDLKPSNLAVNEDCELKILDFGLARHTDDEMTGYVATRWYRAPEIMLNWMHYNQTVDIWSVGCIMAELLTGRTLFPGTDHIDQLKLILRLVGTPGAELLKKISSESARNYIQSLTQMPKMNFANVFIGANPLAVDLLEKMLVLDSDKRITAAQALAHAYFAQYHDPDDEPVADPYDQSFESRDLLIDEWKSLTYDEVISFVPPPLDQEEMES
Sequence of p38β (Q15759 whole entry): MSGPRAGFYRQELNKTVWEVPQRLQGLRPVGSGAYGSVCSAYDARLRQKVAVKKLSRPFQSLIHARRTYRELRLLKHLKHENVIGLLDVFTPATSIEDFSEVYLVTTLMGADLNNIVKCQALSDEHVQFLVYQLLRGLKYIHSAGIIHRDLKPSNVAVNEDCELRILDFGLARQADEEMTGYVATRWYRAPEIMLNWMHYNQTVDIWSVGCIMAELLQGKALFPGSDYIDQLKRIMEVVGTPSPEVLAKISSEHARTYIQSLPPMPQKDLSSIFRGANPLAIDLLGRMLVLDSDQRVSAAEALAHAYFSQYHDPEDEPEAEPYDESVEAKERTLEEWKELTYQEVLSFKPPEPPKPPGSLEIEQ

IC50 (BV-2 cells): 0.00426 µM
Thalf (iv) ([1]; iv 3 mg/kg): 3.9 h
clearance ([1]; male, ICR, mouse, plasma, iv 3 mg/kg): 18.3 mL/min/kg
Vd ([1]; male, ICR, mouse, plasma, iv 3 mg/kg, read-out: Vss (iv)): 2.3 L/kg
Cmax ([1]; male, ICR, mouse, plasma): 750 ng/mL
MRT ([1]; male, ICR, mouse, plasma): 3.2 h
Tmax ([1]; male, ICR, mouse, plasma): 0.8 h
BA [1]: 20.2%
AUClast (po) [1]: 1844 (h)*(ng/mL)
clearance ([2]; male, SD, plasma, rat, iv 3 mg/kg): 25 mL/min/kg
Vd ([2]; male, SD, plasma, rat, iv 3 mg/kg, read-out: Vss (iv)): 4.5 L/kg
Cmax ([2]; male, SD, plasma, rat): 476 ng/mL
MRT ([2]; male, SD, plasma, rat): 4.3 h
Tmax ([2]; male, SD, plasma, rat): 0.8 h
Thalf (iv) ([2]; rat, iv 3 mg/kg): 5.2 h
BA ([2]; rat): 41.2%
AUClast (po) ([2]; rat): 1644.5 (h)*(ng/mL)
Compound: O=c1ncn2nc(Sc3ccc(F)cc3F)ccc2c1-c1c(Cl)cccc1Cl [VX-745, reference compound]
Emax (BV-2 cells): 99.7%
levels of TNF-α compared with the mouse inflammation model group (G2) (TNF-α; 8 mpk, P<0.01): significantly reduced
TNF-α conc. (TNF-α; serum, individual animals, 8 mg/kg po bid interval 4 h, 6 hours after LPS 5 mpk ip): 142.0 pg/mL and 151.7 pg/mL and 105.5 pg/mL and 155.5 pg/mL and 55.4 pg/mL and 105.7 pg/mL and 54.3 pg/mL and 71.2 pg/mL and 24.0 pg/mL and 155.2 pg/mL

IC50 (p38α): 10.7 nM
IC50 (BV-2 cells): 0.0215 µM
absorption compared with the positive compound VX-745 at the same dose [1]: better
Thalf (iv) ([1]; iv 3 mg/kg): 2.97 h
Cmax ([1]; male, ICR, mouse, plasma): 1280 ng/mL
MRT ([1]; male, ICR, mouse, plasma): 4.34 h
Tmax ([1]; male, ICR, mouse, plasma): 2 h
BA [1]: 89.17%
AUClast (po) [1]: 6540 (h)*(ng/mL)
IC50 (p38β): 95.1 nM
Cmax ([2]; male, SD, plasma, rat): 601 ng/mL
MRT ([2]; male, SD, plasma, rat): 4.7 h
Tmax ([2]; male, SD, plasma, rat): 4 h
Thalf (iv) ([2]; rat, iv 3 mg/kg): 3.7 h
BA ([2]; rat): 123.3%
AUClast (po) ([2]; rat): 2994 (h)*(ng/mL)
absorption compared with the positive compound VX-745 at the same dose [2]: better
IC50 (p38γ): > 3330 nM
Compound: O=c1ncn2nc(Oc3cc(F)c(F)cc3F)ccc2c1-c1c(Cl)cccc1Cl [Compound I-43]
Emax (BV-2 cells): 50.9%

IC50 (p38α): 12.1 nM
IC50 (BV-2 cells): 0.0142 µM
absorption compared with the positive compound VX-745 at the same dose [1]: better
Thalf (iv) ([1]; iv 3 mg/kg): 3.32 h
Cmax ([1]; male, ICR, mouse, plasma): 1600 ng/mL
MRT ([1]; male, ICR, mouse, plasma): 3.18 h
Tmax ([1]; male, ICR, mouse, plasma): 1 h
BA [1]: 103.4%
AUClast (po) [1]: 4522 (h)*(ng/mL)
IC50 (p38β): 101 nM
IC50 (p38γ): > 3330 nM
Compound: O=c1ncn2nc(Oc3ccc(F)cc3F)ccc2c1-c1c(F)cccc1Cl [Compound I-62, 5-(2-chloro-6-fluorophenyl)-2-(2,4-difluorophenoxy)-6H-pyrimido[1,6-b]pyridazin-6-one]
Emax (BV-2 cells): 48.6%

IC50 (p38α): 23 nM
IC50 (BV-2 cells): 0.0415 µM
IC50 (p38β): 111 nM
IC50 (p38γ): > 3330 nM
Compound: O=c1ncn2nc(Oc3ccc(F)c(F)c3F)ccc2c1-c1c(Cl)cccc1Cl [Compound I-40]
Emax (BV-2 cells): 47.7%

The next lines start with the compound.

Compound: O=c1ncn2nc(Sc3ccc(F)cc3)ccc2c1-c1c(Cl)cccc1Cl [compound 12]
IC50 (p38 kinase): 0.1 to 1 µM

Compound: O=c1ncn2nc(Oc3ccc(F)cc3)ccc2c1-c1c(Cl)cccc1Cl [Compound I-19, 5-(2,6-dichlorophenyl)-2-(4-fluorophenoxy)-6H-pyrimido[1,6-b]pyridazin-6-one]
IC50 (p38α): 22.4 nM
Emax (BV-2 cells): 61.7%
IC50 (BV-2 cells): 0.0538 µM
absorption compared with the positive compound VX-745 at the same dose [1]: significantly higher
Thalf (iv) ([1]; iv 3 mg/kg): 3.73 h
Cmax ([1]; male, ICR, mouse, plasma): 1820 ng/mL
MRT ([1]; male, ICR, mouse, plasma): 5.55 h
Tmax ([1]; male, ICR, mouse, plasma): 1.33 h
BA [1]: 158.7%
AUClast (po) [1]: 11457 (h)*(ng/mL)
IC50 (p38β): 391 nM
Cmax ([2]; male, SD, plasma, rat): 1090 ng/mL
MRT ([2]; male, SD, plasma, rat): 5.73 h
Tmax ([2]; male, SD, plasma, rat): 3 h
Thalf (iv) ([2]; rat, iv 3 mg/kg): 2.81 h
BA ([2]; rat): 87.87%
AUClast (po) ([2]; rat): 7172 (h)*(ng/mL)
absorption compared with the positive compound VX-745 at the same dose [2]: significantly higher
IC50 (p38γ): > 3330 nM

Compound: O=c1ncn2nc(Oc3cccc(Br)c3)ccc2c1-c1c(Cl)cccc1Cl [Compound I-10, 2-(3-bromophenoxy)-5-(2,6-dichlorophenyl)-6H-pyrimido[1,6-b]pyridazin-6-one]
IC50 (p38α): 60.6 nM
Emax (BV-2 cells): -60%
IC50 (BV-2 cells): 0.0756 µM
IC50 (p38β): 434 nM
IC50 (p38γ): > 3330 nM

Compound: O=c1ncn2nc(Oc3ccccc3F)ccc2c1-c1c(Cl)cccc1Cl [Compound I-27, 5-(2,6-dichlorophenyl)-2-(2-fluorophenoxy)-6H-pyrimido[1,6-b]pyridazin-6-one]
IC50 (p38α): 11.7 nM
Emax (BV-2 cells): 41.9%
IC50 (BV-2 cells): 0.0188 µM
IC50 (p38β): 109 nM
IC50 (p38γ): > 3330 nM
